Assays:
Dissolution test 2 = assay type: physicochemical; settings: composition with 0.4 mg cannabidiol in 45 g ion-exchanged water, 0.45 μm filtrate
Protocol: In a 50 mL screw vial, such a solid composition including 0.4 mg of cannabidiol was dissolved in 45 g of ion-exchanged water. The resultant solution was filtered through a 0.45 μm membrane filter; the filtrate was diluted two-fold with ethanol and further filtered through a 0.20 μm membrane filter; HPLC was performed to quantify the cannabidiol. The value was rounded to two decimal places to determine the dissolution amount. The 0.45 μm membrane filter, the 0.20 μm membrane filter, and the HPLC conditions were as described in the dissolution test 1.

[1] = Amorphization evaluation: XRD; assay type: physicochemical
Protocol: A “RINT UltimaIII horizontal goniometer (D/teX-25)” manufactured by Rigaku Corporation was used to obtain the XRD chart of such a solid composition. The XRD measurement conditions were the focusing method, X-ray: Cu/40 kV/40 mA, scanning range: 3.0° to 50.0°, and scanning axis: 2θ/θ.

[2] = Dissolution test 1: dissolution amount; assay type: physicochemical; settings: cannabidiol; 8 mg in capsule, 900 mL ion-exchanged water, 37° C., 0.45 μm filtrate
Protocol: As the dissolution testing apparatus, an “NTR-6600AST” manufactured by Toyama Sangyo Co., Ltd. was used; the vessel was charged with 900 mL of ion-exchanged water; for the purpose of degassing, the water was stirred overnight at a water temperature of 37° C.±0.2° C. A gelatin capsule (“HF capsule” manufactured by Matsuya Corporation) filled with the solid composition containing 8 mg of the cannabidiol was placed into a sinker, and immersed into the vessel. After a lapse of a predetermined time, sampling was performed in the vessel and the sample was filtered through a 0.45 μm membrane filter. […] The filtrate was diluted two-fold with ethanol and filtered through a 0.20 μm membrane filter; HPLC was performed to quantify the cannabidiol. For each solid composition, two samples were tested and the resultant values were averaged; the average was rounded to two decimal places to determine the dissolution amount.
The 0.45 μm membrane filter employed was “25HP045AN” (filter material: PTFE, pore size: 0.45 μm) manufactured by ADVANTEC. The 0.20 μm membrane filter employed was “13HP020AN” (filter material: PTFE, pore size: 0.20 μm) manufactured by ADVANTEC.
The HPLC conditions were column: octadecylsilyl column, solvent: mixed solution of acetonitrile/10 mM aqueous ammonium acetate solution, and wavelength: 210 nm. […]

[3] = Oral absorption evaluation: animal experiment; assay type: in vivo; settings: male SD rats, 30 mg/kg in terms of cannabidiol, 0.5-24 hours, highest AUC of three rats
Protocol: Of the three rats, data of the highest AUC was employed.
In the LC-MS/MS measurement, as a pre-treatment, 20 μL of the plasma sample and 80 μL of methanol were placed into an Eppendorf tube and suspended for deproteinization. After the proteins were precipitated in a centrifuge, the supernatant was subjected to centrifugal filtration using a filter (manufactured by Millipore, Ultrafree-MC, Hydrophilic PTFE membrane, 0.2 μm). This solution and ultrapure water were mixed together in 1:1 (mass ratio), and used as the measurement sample. The measurement conditions of LC-MS/MS were column: octadecylsilyl column, ion source: ESI+, mobile phase: solution mixture of methanol/10 mM aqueous ammonium formate solution.
The solid composition of Example 5 was evaluated for oral absorption by an animal experiment similar to that for the solid composition of Example 3. Specifically, while the powder composed only of cannabidiol in Comparative Example 1 was used as the control, the animal experiment was performed in accordance with the above-described oral absorption evaluation method.

C=C(C)[C@@H]1CCC(C)=C[C@H]1c1c(O)cc(CCCCC)cc1O [Comparative Example 1, cannabidiol]
Dissolution test 2 dissolution amount (Dissolution test 2): 0.03 µg/mL
Form of the cannabinoid from the XRD chart (in words) [1]: crystalline state
Dissolution amount after lapse of 120 minutes [2]: 0.01 µg/mL
Dissolution amount after lapse of 240 minutes [2]: 0.01 µg/mL
AUC (area under the blood concentration time curve) of the cannabidiol ([3]; 30 mg/kg): 665 ng·h/mL
AUC ([3]; rat, plasma, read-out: AUC (area under the blood concentration time curve) of the cannabidiol): 812 ng·h/mL
